Measured values from ChEMBL document CHEMBL4732145, “Discovery of a PROTAC targeting ALK with in vivo activity” (Eur J Med Chem, 2021).

How the values were obtained:
NCI-H1299 = assay: Antiproliferative activity against human NCI-H1299 cells assessed as reduction in cell viability measured after 72 hrs by MTT assay; details: NCI-H1299, 72 h
HeLa = assay: Antiproliferative activity against human HeLa cells assessed as reduction in cell viability measured after 72 hrs by MTT assay
A549 = assay: Antiproliferative activity against human A549 cells assessed as reduction in cell viability measured after 72 hrs by MTT assay; details: A549, 72 h
NCI-H2228 = assay: Antiproliferative activity against human NCI-H2228 cells assessed as reduction in cell viability measured after 72 hrs by MTT assay; details: NCI-H2228, 72 h
LO2 (Homo sapiens) = assay: Cytotoxicity against human L02 cells assessed as reduction in cell viability measured after 72 hrs by MTT assay; details: l02, 72 h
NCI-H3122 [1] = assay: Antiproliferative activity against human NCI-H3122 cells assessed as reduction in cell viability measured after 72 hrs by MTT assay; details: NCI-H3122, 72 h
[2] = molecular target: von Hippel-Lindau disease tumor suppressor/ALK tyrosine kinase receptor/Nucleophosmin (Homo sapiens) (UniProt Q9UM73+P06748+P40337); assay: Protac activity at VHL/NPM-ALK fusion protein in human SU-DHL-1 cells assessed as induction of NPM-ALK fusion protein degradation at 1 uM by Western blot analysis relative to control; type: cell-based
NCI-H3122 [3] = assay: Antitumor activity against human NCI-H3122 cells xenografted in BALB/c nude mouse assessed as tumor growth inhibition at 25 mg/kg/day, ig administered for 15 days relative to control; type: functional; details: NCI-H3122, po, 360 h, time 15 day, read-out: TGI

Sequence of von Hippel-Lindau disease tumor suppressor/ALK tyrosine kinase receptor/Nucleophosmin (Homo sapiens) (P06748 whole entry partner, the tested form may be a part): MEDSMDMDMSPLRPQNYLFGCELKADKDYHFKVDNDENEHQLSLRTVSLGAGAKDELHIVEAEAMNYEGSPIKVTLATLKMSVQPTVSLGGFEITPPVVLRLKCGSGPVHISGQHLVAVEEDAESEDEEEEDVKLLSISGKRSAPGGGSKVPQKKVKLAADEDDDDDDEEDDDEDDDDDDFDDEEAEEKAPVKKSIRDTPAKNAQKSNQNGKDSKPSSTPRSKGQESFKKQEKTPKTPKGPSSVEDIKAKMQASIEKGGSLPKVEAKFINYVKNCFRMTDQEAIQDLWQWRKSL
Sequence of von Hippel-Lindau disease tumor suppressor/ALK tyrosine kinase receptor/Nucleophosmin (Homo sapiens) (P40337 whole entry partner, the tested form may be a part): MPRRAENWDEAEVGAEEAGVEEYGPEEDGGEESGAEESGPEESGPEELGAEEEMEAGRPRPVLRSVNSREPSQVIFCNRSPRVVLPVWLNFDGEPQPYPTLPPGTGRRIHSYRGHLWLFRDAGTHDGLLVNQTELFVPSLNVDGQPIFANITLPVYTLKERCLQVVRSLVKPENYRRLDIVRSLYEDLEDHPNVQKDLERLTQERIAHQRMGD
Sequence of von Hippel-Lindau disease tumor suppressor/ALK tyrosine kinase receptor/Nucleophosmin (Homo sapiens) (Q9UM73 19-1620 limits assumed): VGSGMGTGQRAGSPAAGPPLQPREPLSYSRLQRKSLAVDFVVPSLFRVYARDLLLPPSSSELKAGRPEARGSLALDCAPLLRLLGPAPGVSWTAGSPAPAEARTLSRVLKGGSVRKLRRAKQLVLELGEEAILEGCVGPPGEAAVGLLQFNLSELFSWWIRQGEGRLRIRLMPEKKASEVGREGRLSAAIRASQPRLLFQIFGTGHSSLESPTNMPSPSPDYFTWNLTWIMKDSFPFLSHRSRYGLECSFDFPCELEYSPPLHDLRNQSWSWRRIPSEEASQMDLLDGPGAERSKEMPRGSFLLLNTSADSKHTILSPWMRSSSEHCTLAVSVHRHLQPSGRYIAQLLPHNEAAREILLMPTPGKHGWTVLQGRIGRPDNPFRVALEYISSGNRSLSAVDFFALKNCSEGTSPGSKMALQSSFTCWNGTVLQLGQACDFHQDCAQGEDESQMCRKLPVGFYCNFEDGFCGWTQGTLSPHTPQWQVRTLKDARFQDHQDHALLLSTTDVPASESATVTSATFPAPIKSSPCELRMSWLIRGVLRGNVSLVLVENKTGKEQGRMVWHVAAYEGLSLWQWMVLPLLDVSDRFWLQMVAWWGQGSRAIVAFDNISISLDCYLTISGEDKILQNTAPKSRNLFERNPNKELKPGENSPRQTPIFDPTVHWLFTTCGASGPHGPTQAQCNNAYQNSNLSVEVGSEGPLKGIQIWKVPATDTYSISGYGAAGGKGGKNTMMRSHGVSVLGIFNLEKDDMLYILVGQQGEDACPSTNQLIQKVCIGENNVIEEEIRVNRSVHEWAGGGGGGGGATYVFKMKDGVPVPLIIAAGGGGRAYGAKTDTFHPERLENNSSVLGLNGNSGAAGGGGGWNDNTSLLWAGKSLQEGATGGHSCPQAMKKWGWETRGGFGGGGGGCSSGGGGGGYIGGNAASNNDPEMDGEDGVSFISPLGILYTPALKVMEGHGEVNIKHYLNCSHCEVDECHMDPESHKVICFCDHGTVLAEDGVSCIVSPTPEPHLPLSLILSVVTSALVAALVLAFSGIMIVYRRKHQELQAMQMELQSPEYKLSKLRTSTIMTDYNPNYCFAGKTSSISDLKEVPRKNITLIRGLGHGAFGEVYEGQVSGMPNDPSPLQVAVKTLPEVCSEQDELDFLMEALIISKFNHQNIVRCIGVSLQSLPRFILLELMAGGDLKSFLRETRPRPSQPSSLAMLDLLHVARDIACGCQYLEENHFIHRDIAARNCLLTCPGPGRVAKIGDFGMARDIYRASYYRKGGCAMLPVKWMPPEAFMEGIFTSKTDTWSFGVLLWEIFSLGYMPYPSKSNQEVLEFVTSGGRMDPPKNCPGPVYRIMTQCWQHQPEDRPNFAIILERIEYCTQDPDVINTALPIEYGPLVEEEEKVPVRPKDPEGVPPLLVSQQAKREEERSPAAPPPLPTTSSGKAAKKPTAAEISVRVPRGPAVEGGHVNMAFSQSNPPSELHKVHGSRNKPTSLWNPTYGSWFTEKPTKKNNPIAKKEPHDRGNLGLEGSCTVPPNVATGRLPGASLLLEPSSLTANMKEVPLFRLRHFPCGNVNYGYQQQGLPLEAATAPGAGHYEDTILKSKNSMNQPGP

SMILES	IC50 (NCI-H1299)	IC50 (HeLa)	IC50 (A549)	IC50 (NCI-H2228)	IC50 (NCI-H3122 [1])	Activity [2]	Activity (LO2 (Homo sapiens))	inhibition in vivo at 25 mg/kg/day (NCI-H3122 [3])
Cc1cc(Nc2ncc(Cl)c(Nc3ccccc3S(=O)(=O)C(C)C)n2)c(OC(C)C)cc1C1CCN(CCC(=O)NCCCCCCNCC(=O)Nc2cccc3c2C(=O)N(C2CCC(=O)NC2=O)C3=O)CC1 (centres undefined)	> 20 µM	4.36 µM	5.13 µM	3.1 µM	1.1 µM	–	Toxic	–
Cc1cc(Nc2ncc(Cl)c(Nc3ccccc3S(=O)(=O)C(C)C)n2)c(OC(C)C)cc1C1CCN(CCC(=O)NCCCCNCC(=O)Nc2cccc3c2C(=O)N(C2CCC(=O)NC2=O)C3=O)CC1 (centres undefined)	> 20 µM	8.15 µM	13.4 µM	8.7 µM	3.52 µM	–	Toxic	–
Cc1cc(Nc2ncc(Cl)c(Nc3ccccc3S(=O)(=O)C(C)C)n2)c(OC(C)C)cc1C1CCN(C(=O)CCCC(=O)N[C@H](C(=O)N2C[C@H](O)C[C@H]2C(=O)NCc2ccc(-c3scnc3C)cc2)C(C)(C)C)CC1	–	–	–	–	–	> 90%	–	–
Cc1cc(Nc2ncc(Cl)c(Nc3ccccc3S(=O)(=O)C(C)C)n2)c(OC(C)C)cc1C1CCN(CCC(=O)NCCOCCNCCC(=O)Nc2cccc3c2C(=O)N(C2CCC(=O)NC2=O)C3=O)CC1 (centres undefined)	12.3 µM	7.98 µM	10.9 µM	5.2 µM	4.86 µM	–	Toxic	–
Cc1cc(Nc2ncc(Cl)c(Nc3ccccc3S(=O)(=O)C(C)C)n2)c(OC(C)C)cc1C1CCN(CCC(=O)NCCCCCCCCNCC(=O)Nc2cccc3c2C(=O)N(C2CCC(=O)NC2=O)C3=O)CC1 (centres undefined)	> 20 µM	7.67 µM	> 20 µM	15.1 µM	2.66 µM	–	Toxic	–

More lines, main results first:

IC50 (NCI-H1299)	IC50 (HeLa)	IC50 (A549)	IC50 (NCI-H2228)	IC50 (NCI-H3122 [1])	Activity [2]	SMILES	Activity (LO2 (Homo sapiens))	inhibition in vivo at 25 mg/kg/day (NCI-H3122 [3])
7.59 µM	2.23 µM	2.6 µM	3.5 µM	0.7 µM	–	Cc1cc(Nc2ncc(Cl)c(Nc3ccccc3S(=O)(=O)C(C)C)n2)c(OC(C)C)cc1C1CCN(CCC(=O)NCCOCCOCCNc2cccc3c2C(=O)N(C2CCC(=O)NC2=O)C3=O)CC1 (centres undefined)	Toxic	–
10.9 µM	5.86 µM	5.81 µM	4.51 µM	2.34 µM	–	Cc1cc(Nc2ncc(Cl)c(Nc3ccccc3S(=O)(=O)C(C)C)n2)c(OC(C)C)cc1C1CCN(CCC(=O)NCCOCCOCCNCC(=O)Nc2cccc3c2C(=O)N(C2CCC(=O)NC2=O)C3=O)CC1 (centres undefined)	Toxic	–
2.92 µM	0.94 µM	1.32 µM	1.3 µM	–	–	Cc1cc(Nc2ncc(Cl)c(Nc3ccccc3S(=O)(=O)C(C)C)n2)c(OC(C)C)cc1C1CCNCC1 [CERITINIB]	–	49%
9.33 µM	6.99 µM	> 20 µM	> 20 µM	1.3 µM	–	Cc1cc(Nc2ncc(Cl)c(Nc3ccccc3S(=O)(=O)C(C)C)n2)c(OC(C)C)cc1C1CCN(CCC(=O)NCCCCNC(=O)COc2cccc3c2C(=O)N(C2CCC(=O)NC2=O)C3=O)CC1 (centres undefined)	Toxic	–
7.23 µM	5.78 µM	6.73 µM	5.74 µM	1.83 µM	–	Cc1cc(Nc2ncc(Cl)c(Nc3ccccc3S(=O)(=O)C(C)C)n2)c(OC(C)C)cc1C1CCN(CCC(=O)NCCOCCNCC(=O)Nc2cccc3c2C(=O)N(C2CCC(=O)NC2=O)C3=O)CC1 (centres undefined)	Toxic	–
